Reference: patent US9637453B2, “3-spirocyclic-6-hydroxamic acid tetralins as HDAC inhibitors” (Forma Therapeutics, Inc., priority 2015, dated 2017)

Assays:
[1] = molecular target: T1, Full length human recombinant HDAC6 (Homo sapiens, UniProt Q9UBN7); assay: In vitro histone deacetylase assay, enzymatic HDAC6 (electrophoretic mobility shift assay); type: biochemical; conditions: 1 nM HDAC6; 2 μM peptide substrate FAM-RHKK(Ac)—NH2; 25° C.; 12 concentrations; read-out: HDAC6 Activity Range (IC50)
T1 construct: Full length human recombinant HDAC6 and HDAC11 proteins were expressed in baculoviral system
T1 sequence (Q9UBN7 1-1215): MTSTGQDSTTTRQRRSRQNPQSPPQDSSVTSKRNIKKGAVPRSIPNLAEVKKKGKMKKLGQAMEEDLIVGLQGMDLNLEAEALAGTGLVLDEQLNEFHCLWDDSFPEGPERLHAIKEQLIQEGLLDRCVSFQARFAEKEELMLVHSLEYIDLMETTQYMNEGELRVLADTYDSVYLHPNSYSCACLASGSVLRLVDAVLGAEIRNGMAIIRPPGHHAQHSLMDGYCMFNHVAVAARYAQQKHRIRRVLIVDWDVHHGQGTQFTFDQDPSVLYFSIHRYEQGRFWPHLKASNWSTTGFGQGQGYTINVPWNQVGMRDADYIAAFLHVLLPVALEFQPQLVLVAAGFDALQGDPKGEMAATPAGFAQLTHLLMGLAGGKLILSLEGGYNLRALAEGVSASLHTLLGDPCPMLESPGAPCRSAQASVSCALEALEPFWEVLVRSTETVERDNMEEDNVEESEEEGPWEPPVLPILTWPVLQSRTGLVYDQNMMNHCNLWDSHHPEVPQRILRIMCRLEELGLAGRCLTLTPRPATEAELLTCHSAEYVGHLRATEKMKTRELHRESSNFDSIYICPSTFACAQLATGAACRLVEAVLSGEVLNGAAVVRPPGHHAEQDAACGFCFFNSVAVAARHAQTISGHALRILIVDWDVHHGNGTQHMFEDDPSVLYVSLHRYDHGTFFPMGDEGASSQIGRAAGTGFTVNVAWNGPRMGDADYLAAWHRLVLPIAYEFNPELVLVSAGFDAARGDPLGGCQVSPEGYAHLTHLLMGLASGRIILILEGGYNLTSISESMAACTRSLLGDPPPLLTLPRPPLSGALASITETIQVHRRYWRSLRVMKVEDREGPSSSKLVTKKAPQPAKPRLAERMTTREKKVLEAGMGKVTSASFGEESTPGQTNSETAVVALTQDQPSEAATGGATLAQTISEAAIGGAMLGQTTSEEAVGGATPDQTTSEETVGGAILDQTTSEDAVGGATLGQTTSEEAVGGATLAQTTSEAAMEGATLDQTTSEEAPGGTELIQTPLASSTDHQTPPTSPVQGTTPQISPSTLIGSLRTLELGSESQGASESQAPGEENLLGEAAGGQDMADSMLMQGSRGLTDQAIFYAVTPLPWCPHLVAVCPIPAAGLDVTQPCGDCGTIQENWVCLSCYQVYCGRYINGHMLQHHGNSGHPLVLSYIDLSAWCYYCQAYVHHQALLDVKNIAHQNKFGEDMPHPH
Procedure, shortened: (§1)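 Baculovirus-expressed full-length enzymes (HDAC6 1 nM, FAM-RHKK(Ac)-NH2; HDAC11 10 nM, FAM-RHKK(tri-fluor-Ac)-NH2), 2 μM substrate, HEPES pH 7.5, 25°C, 12-point 3× dilutions. Product/substrate separated by microfluidic mobility shift after SDS quench; IC50 from 4-parameter fit, reported as +/++/+++ bins.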

[2] = molecular target: T2, Full length human recombinant HDAC11 (Homo sapiens, UniProt Q96DB2); assay: In vitro histone deacetylase assay, enzymatic HDAC11 (electrophoretic mobility shift assay); type: biochemical; conditions: 10 nM HDAC11; 2 μM peptide substrate FAM-RHKK(tri-fluor-Ac)—NH2; 25° C.; 12 concentrations; read-out: HDAC11 Activity Range (IC50)
T2 construct: Full length human recombinant HDAC6 and HDAC11 proteins were expressed in baculoviral system
T2 sequence (Q96DB2 1-347): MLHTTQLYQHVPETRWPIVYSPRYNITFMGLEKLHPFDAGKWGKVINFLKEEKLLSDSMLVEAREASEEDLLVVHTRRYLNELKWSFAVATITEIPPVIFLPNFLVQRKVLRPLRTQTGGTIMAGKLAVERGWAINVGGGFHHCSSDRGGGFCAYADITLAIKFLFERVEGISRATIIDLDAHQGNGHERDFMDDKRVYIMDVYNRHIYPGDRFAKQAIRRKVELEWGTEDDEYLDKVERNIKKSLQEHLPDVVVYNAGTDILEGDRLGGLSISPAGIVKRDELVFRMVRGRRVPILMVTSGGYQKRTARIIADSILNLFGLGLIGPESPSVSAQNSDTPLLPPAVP
Procedure, shortened: as §1

COCCN1CC[C@@]2(CCc3ccc(C(=O)NO)cc3C2)C1=O [Compound I-56, (S)—N-hydroxy-1′-(2-methoxyethyl)-2′-oxo-3,4-dihydro-1H-spiro[naphthalene-2,3′-pyrrolidine]-7-carboxamide]
IC50 [1]: ≤ 100 nM | IC50 [2]: > 500 nM

O=C(NO)c1ccc2c(c1)C[C@@]1(CC2)CCN(CC2CCOCC2)C1=O [Compound I-57, (S)—N-hydroxy-2′-oxo-1′-((tetrahydro-2H-pyran-4-yl)methyl)-3,4-dihydro-1H-spiro[naphthalene-2,3′-pyrrolidine]-7-carboxamide]
IC50 [1]: ≤ 100 nM | IC50 [2]: > 500 nM

O=C(NO)c1ccc2c(c1)C[C@@]1(CC2)CCN(C/C=C/c2ccccc2)C1=O [Compound I-58, (S)-1′-cinnamyl-N-hydroxy-2′-oxo-3,4-dihydro-1H-spiro[naphthalene-2,3′-pyrrolidine]-7-carboxamide]
IC50 [1]: ≤ 100 nM | IC50 [2]: 100 to 500 nM

Cc1ccccc1CN1CC[C@@]2(CCc3ccc(C(=O)NO)cc3C2)C1=O [Compound I-59, (S)—N-hydroxy-1′-(2-methylbenzyl)-2′-oxo-3,4-dihydro-1H-spiro[naphthalene-2,3′-pyrrolidine]-7-carboxamide]
IC50 [1]: ≤ 100 nM | IC50 [2]: > 500 nM

O=C(NO)c1ccc2c(c1)C[C@@]1(CC2)CCN(Cc2ccccc2C(F)(F)F)C1=O [Compound I-60, (S)—N-hydroxy-2′-oxo-1′-(2-(trifluoromethyl)benzyl)-3,4-dihydro-1H-spiro[naphthalene-2,3′-pyrrolidine]-7-carboxamide]
IC50 [1]: ≤ 100 nM | IC50 [2]: > 500 nM

O=C(NO)c1ccc2c(c1)C[C@@]1(CC2)CCN(Cc2ccccc2Cl)C1=O [Compound I-61, (S)-1′-(2-chlorobenzyl)-N-hydroxy-2′-oxo-3,4-dihydro-1H-spiro[naphthalene-2,3′-pyrrolidine]-7-carboxamide]
IC50 [1]: ≤ 100 nM | IC50 [2]: > 500 nM

O=C(NO)c1ccc2c(c1)C[C@@]1(CC2)CCN(Cc2ccccc2OC(F)(F)F)C1=O [Compound I-62, (S)—N-hydroxy-2′-oxo-1′-(2-(trifluoromethoxy)benzyl)-3,4-dihydro-1H-spiro[naphthalene-2,3′-pyrrolidine]-7-carboxamide]
IC50 [1]: 100 to 500 nM | IC50 [2]: > 500 nM

O=C(NO)c1ccc2c(c1)C[C@@]1(CC2)CCN(Cc2ccc3nonc3c2)C1=O [Compound I-63, (S)-1′-(benzo[c][1,2,5]oxadiazol-5-ylmethyl)-N-hydroxy-2′-oxo-3,4-dihydro-1H-spiro[naphthalene-2,3′-pyrrolidine]-7-carboxamide]
IC50 [1]: ≤ 100 nM | IC50 [2]: > 500 nM

O=C(NO)c1ccc2c(c1)C[C@@]1(CC2)CCN(CC(=O)N2CCOCC2)C1=O [Compound I-64, (S)—N-hydroxy-1′-(2-morpholino-2-oxoethyl)-2′-oxo-3,4-dihydro-1H-spiro[naphthalene-2,3′-pyrrolidine]-7-carboxamide]
IC50 [1]: ≤ 100 nM | IC50 [2]: > 500 nM

COc1ccccc1CN1CC[C@@]2(CCc3ccc(C(=O)NO)cc3C2)C1=O [Compound I-65, (S)—N-hydroxy-1′-(2-methoxybenzyl)-2′-oxo-3,4-dihydro-1H-spiro[naphthalene-2,3′-pyrrolidine]-7-carboxamide]
IC50 [1]: ≤ 100 nM | IC50 [2]: > 500 nM

CC(C)n1c(CN2CC[C@@]3(CCc4ccc(C(=O)NO)cc4C3)C2=O)nc2ccccc21 [Compound I-66, (S)—N-hydroxy-1′-((1-isopropyl-1H-benzo[d]imidazol-2-yl)methyl)-2′-oxo-3,4-dihydro-1H-spiro[naphthalene-2,3′-pyrrolidine]-7-carboxamide]
IC50 [1]: ≤ 100 nM | IC50 [2]: > 500 nM

O=C(NO)c1ccc2c(c1)C[C@@]1(CC2)CCN(Cc2cc(Cl)ccc2Cl)C1=O [Compound I-67, (S)-1′-(2,5-dichlorobenzyl)-N-hydroxy-2′-oxo-3,4-dihydro-1H-spiro[naphthalene-2,3′-pyrrolidine]-7-carboxamide]
IC50 [1]: 100 to 500 nM | IC50 [2]: > 500 nM

O=C(NO)c1ccc2c(c1)C[C@@]1(CC2)CCN(Cc2c(Cl)cccc2Cl)C1=O [Compound I-68, (S)-1′-(2,6-dichlorobenzyl)-N-hydroxy-2′-oxo-3,4-dihydro-1H-spiro[naphthalene-2,3′-pyrrolidine]-7-carboxamide]
IC50 [1]: ≤ 100 nM | IC50 [2]: > 500 nM

COc1cccc(CN2CC[C@@]3(CCc4ccc(C(=O)NO)cc4C3)C2=O)c1 [Compound I-69, (S)—N-hydroxy-1′-(3-methoxybenzyl)-2′-oxo-3,4-dihydro-1H-spiro[naphthalene-2,3′-pyrrolidine]-7-carboxamide]
IC50 [1]: ≤ 100 nM | IC50 [2]: > 500 nM

O=C(NO)c1ccc2c(c1)C[C@@]1(CC2)CCN(Cc2cccnc2)C1=O [Compound I-70, (S)—N-hydroxy-2′-oxo-1′-(pyridin-3-ylmethyl)-3,4-dihydro-1H-spiro[naphthalene-2,3′-pyrrolidine]-7-carboxamide]
IC50 [1]: ≤ 100 nM | IC50 [2]: > 500 nM

O=C(NO)c1ccc2c(c1)C[C@@]1(CC2)CCN(Cc2ccccn2)C1=O [Compound I-71, (S)—N-hydroxy-2′-oxo-1′-(pyridin-2-ylmethyl)-3,4-dihydro-1H-spiro[naphthalene-2,3′-pyrrolidine]-7-carboxamide]
IC50 [1]: ≤ 100 nM | IC50 [2]: > 500 nM

O=C(NO)c1ccc2c(c1)C[C@@]1(CC2)CCN(Cc2cccc(F)c2)C1=O [Compound I-72, (S)-1′-(3-fluorobenzyl)-N-hydroxy-2′-oxo-3,4-dihydro-1H-spiro[naphthalene-2,3′-pyrrolidine]-7-carboxamide]
IC50 [1]: ≤ 100 nM | IC50 [2]: > 500 nM

O=C(NO)c1ccc2c(c1)C[C@@]1(CC2)CCN(Cc2ccc(OC(F)(F)F)cc2)C1=O [Compound I-73, (S)—N-hydroxy-2′-oxo-1′-(4-(trifluoromethoxy)benzyl)-3,4-dihydro-1H-spiro[naphthalene-2,3′-pyrrolidine]-7-carboxamide]
IC50 [1]: ≤ 100 nM | IC50 [2]: > 500 nM

O=C(NO)c1ccc2c(c1)C[C@@]1(CC2)CCN(Cc2cccc(Cl)c2)C1=O [Compound I-74, (S)-1′-(3-chlorobenzyl)-N-hydroxy-2′-oxo-3,4-dihydro-1H-spiro[naphthalene-2,3′-pyrrolidine]-7-carboxamide]
IC50 [1]: ≤ 100 nM | IC50 [2]: > 500 nM

COc1ccc(CN2CC[C@@]3(CCc4ccc(C(=O)NO)cc4C3)C2=O)cc1 [Compound I-75, (S)—N-hydroxy-1′-(4-methoxybenzyl)-2′-oxo-3,4-dihydro-1H-spiro[naphthalene-2,3′-pyrrolidine]-7-carboxamide]
IC50 [1]: ≤ 100 nM | IC50 [2]: > 500 nM

O=C(NO)c1ccc2c(c1)C[C@@]1(CC2)CCN(Cc2ccccc2F)C1=O [Compound I-76, (S)-1′-(2-fluorobenzyl)-N-hydroxy-2′-oxo-3,4-dihydro-1H-spiro[naphthalene-2,3′-pyrrolidine]-7-carboxamide]
IC50 [1]: ≤ 100 nM | IC50 [2]: > 500 nM

O=C(NO)c1ccc2c(c1)C[C@@]1(CC2)CCN(Cc2ccc3ccccc3c2)C1=O [Compound I-77, (S)—N-hydroxy-1′-(naphthalen-2-ylmethyl)-2′-oxo-3,4-dihydro-1H-spiro[naphthalene-2,3′-pyrrolidine]-7-carboxamide]
IC50 [1]: ≤ 100 nM | IC50 [2]: 100 to 500 nM
